Source: ChEMBL document CHEMBL2413050, “Design and synthesis of conformationally restricted capsaicin analogues based in the 1, 3, 4-thiadiazole heterocycle reveal a novel family of transient receptor potential vanilloid 1 (TRPV1) antagonists” (Eur J Med Chem, 2013)

Columns and labels:
[1] = target: T1, Uncharacterized protein (Gallus gallus) (UniProt F1NJH8); test: Antagonist activity at chicken TRPV1 receptor assessed as inhibition of capsaicin-induced calcium flux at 1 uM after 30 mins by cell based Fluo-4AM fluorescence assay relative to control
T1 sequence (whole entry): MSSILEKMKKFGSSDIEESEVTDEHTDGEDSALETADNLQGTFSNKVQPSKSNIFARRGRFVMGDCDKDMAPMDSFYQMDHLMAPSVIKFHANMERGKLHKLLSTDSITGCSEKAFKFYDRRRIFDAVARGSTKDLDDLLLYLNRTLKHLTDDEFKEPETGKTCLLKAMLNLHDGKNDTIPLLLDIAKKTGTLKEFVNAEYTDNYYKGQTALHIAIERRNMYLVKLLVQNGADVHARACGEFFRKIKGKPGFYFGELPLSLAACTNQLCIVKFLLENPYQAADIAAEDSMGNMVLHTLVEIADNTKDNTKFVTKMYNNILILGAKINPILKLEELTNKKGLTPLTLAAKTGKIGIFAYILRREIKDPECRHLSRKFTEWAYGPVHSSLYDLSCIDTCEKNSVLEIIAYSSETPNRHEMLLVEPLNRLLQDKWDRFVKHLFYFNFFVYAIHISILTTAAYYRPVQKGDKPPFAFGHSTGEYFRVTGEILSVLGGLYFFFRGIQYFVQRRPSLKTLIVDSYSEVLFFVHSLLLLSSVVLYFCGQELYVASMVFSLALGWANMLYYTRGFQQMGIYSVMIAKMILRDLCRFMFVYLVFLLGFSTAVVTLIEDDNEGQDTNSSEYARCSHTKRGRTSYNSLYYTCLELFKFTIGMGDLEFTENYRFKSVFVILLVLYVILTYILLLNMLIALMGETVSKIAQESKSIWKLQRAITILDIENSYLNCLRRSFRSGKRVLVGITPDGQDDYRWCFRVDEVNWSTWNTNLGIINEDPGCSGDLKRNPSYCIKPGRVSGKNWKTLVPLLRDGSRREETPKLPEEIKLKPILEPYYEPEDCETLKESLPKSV

[2] = target: T2, Transient receptor potential cation channel subfamily V member 1 (Rattus norvegicus, UniProt O35433); test: Antagonist activity at rat TRPV1 receptor expressed in HEK293T cells assessed as inhibition of capsaicin-induced calcium flux after 30 mins by Fluo-4AM based fluorescence assay; assay type: cell-based, HEK-293T
T2 sequence (O35433 whole entry): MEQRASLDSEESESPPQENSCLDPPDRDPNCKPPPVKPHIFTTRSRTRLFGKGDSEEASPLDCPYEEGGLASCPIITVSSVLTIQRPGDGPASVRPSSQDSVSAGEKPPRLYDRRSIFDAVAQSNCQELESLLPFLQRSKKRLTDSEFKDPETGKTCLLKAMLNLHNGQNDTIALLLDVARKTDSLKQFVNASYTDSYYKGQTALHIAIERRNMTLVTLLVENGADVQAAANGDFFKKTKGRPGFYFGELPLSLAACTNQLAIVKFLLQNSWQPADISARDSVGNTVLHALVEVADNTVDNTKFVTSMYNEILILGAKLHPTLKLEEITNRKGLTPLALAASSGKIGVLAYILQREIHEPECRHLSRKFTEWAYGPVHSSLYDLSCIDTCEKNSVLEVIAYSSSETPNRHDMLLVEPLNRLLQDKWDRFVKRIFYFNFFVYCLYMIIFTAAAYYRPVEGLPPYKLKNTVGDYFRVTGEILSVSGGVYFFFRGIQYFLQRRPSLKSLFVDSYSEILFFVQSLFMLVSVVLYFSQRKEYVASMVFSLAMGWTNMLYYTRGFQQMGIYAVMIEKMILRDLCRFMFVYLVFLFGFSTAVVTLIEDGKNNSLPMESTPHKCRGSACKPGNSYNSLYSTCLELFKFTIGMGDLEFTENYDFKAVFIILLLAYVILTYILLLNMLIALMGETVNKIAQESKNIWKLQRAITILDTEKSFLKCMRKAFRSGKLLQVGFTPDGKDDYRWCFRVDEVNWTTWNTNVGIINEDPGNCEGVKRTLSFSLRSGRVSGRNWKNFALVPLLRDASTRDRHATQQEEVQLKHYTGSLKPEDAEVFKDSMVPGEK

[3] = target: T2, Transient receptor potential cation channel subfamily V member 1; test: Antagonist activity at rat TRPV1 receptor expressed in HEK293T cells assessed as inhibition of temperature-induced calcium flux after 30 mins by Fluo-4AM based fluorescence assay; assay type: cell-based, HEK-293T
[4] = target: Transient receptor potential cation channel subfamily V member 1 (Rattus norvegicus) (UniProt O35433); test: Antagonist activity at rat TRPV1 receptor expressed in HEK293T cells assessed as inhibition of capsaicin-induced calcium flux at 1 uM after 30 mins by Fluo-4AM based fluorescence assay relative to control; assay type: cell-based; conditions: HEK-293T
Transient receptor potential cation channel subfamily V member 1 (Rattus norvegicus), sequence (O35433 whole entry): as above

[5] = target: Transient receptor potential cation channel subfamily V member 1 (Rattus norvegicus) (UniProt O35433); test: Antagonist activity at rat TRPV1 receptor expressed in HEK293T cells assessed as inhibition of temperature-induced calcium flux at 1 uM after 30 mins by Fluo-4AM based fluorescence assay relative to control; assay type: cell-based; conditions: HEK-293T

Structure (SMILES)	inhibition [1] [%]	IC50 [2] [pM]	IC50 [3] [pM]	inhibition [4] [%]	inhibition [5] [%]
CCCCCCCCC(=O)Nc1nnc(-c2ccc(O)c(OC)c2)s1	79.4	180	50	98.8	92.9
CCCCCCC(=O)Nc1nnc(-c2ccc(O)c(OC)c2)s1	–	770	–	95.3	94
CCCCCC(=O)Nc1nnc(-c2ccc(O)c(OC)c2)s1	92.6	2610	–	95.5	88.8
CCCCCCCC(=O)Nc1nnc(-c2cc(I)c(O)c(OC)c2)s1	85.4	330	1090	94.5	93.7
CC(C)(C)c1ccc(NC(=O)N2CCN(c3ncccc3Cl)CC2)cc1	8.97	–	–	92.7	66.4
CCCCCC(=O)Nc1nnc(-c2cc(I)c(O)c(OC)c2)s1	95.3	1470	290	96.6	94.3
CCCCCCC(=O)Nc1nnc(-c2cc(I)c(O)c(OC)c2)s1	–	6070	–	90.8	92.4
CCCCCCCC(=O)Nc1nnc(-c2ccc(O)c(OC)c2)s1	81.2	150	–	97.7	89.8
CCCCCCCCC(=O)Nc1nnc(-c2cc(I)c(O)c(OC)c2)s1	80.1	340	150	96.9	91.9
